Reference: patent US7118872B2, “Binding polypeptides for B lymphocyte stimulator protein (BLyS)” (priority 2000, dated 2006)
Positions of bridges follow the written chain, without caps; N, C: chain ends. Residues, ends and D or L forms follow the SMILES beside them. No end group written: not given here.

Biological target: BLyS (Homo sapiens, UniProt Q9Y275)
Assay: Chromatographic screening of immobilized BLyS binding polypeptides (affinity media)
Settings: peptide immobilized on SEPHAROSE 4 Fast Flow
Method: A reversed phase analytical assay was used in the assessment of the chromatographic performance of the six affinity media.
All columns were tested at 200 μl/min (170 cm/hr) using a Watson/Marlow 101 ru peristaltic pump. This setup allowed free use of numerous wash, protein and elution conditions. Detection was made using a Waters 2487 UV/VIS detector at 214 nm and 280 nm connected to a Waters Millennium workstation.
The columns were then tested with an array of possible elution conditions and monitored at 214 nm and 280 nm for release of BLyS. Fractions indicating possible BLyS elution based on UV absorbance were collected and analyzed by reversed phase chromatography for confirmation.

Chain of BLyS (Q9Y275 134-285 limits assumed): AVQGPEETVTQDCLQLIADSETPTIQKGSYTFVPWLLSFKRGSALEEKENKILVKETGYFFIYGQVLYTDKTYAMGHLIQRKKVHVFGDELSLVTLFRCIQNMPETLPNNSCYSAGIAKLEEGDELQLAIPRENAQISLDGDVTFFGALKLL

| Molecule | release of BLyS from affinity media (elution condition) |
| --- | --- |
| CC(=O)N[C@@H](C)C(=O)NCC(=O)N[C@@H](CCCCN)C(=O)N[C@@H](CCC(=O)O)C(=O)N1CCC[C@H]1C(=O)N[C@H]1CSSC[C@@H](C(=O)N[C@@H](C)C(=O)N[C@H](C(=O)N[C@@H](CO)C(=O)NCC(=O)N2CCC[C@H]2C(=O)NCC(=O)N2CCC[C@H]2C(=O)N[C@@H](CCC(=O)O)C(=O)NCC(=O)NCC(=O)NCC(=O)N[C@@H](CCCCN)C(=O)O)C(C)C)NC(=O)[C@H](CCC(=O)O)NC(=O)[C@H](Cc2c[nH]c3ccccc23)NC(=O)[C@H](Cc2ccc(O)cc2)NC(=O)[C@H](Cc2ccccc2)NC(=O)[C@H](Cc2ccc(O)cc2)NC1=O [DX212] (Ac-AGKEPCYFYWECAVSGPGPEGGGK-OH; disulfide 6-12; C-terminus assumed) | released BLyS with good recoveries on elution with 50% ethylene glycol, pH 4 |
| CC(=O)N[C@@H](C)C(=O)NCC(=O)N[C@H](C(=O)N1CCC[C@H]1C(=O)N[C@@H](Cc1ccccc1)C(=O)N[C@H]1CSSC[C@@H](C(=O)N[C@@H](Cc2ccccc2)C(=O)N[C@@H](CCC(=O)O)C(=O)N[C@@H](C)C(=O)NCC(=O)N2CCC[C@H]2C(=O)NCC(=O)N2CCC[C@H]2C(=O)N[C@@H](CCC(=O)O)C(=O)NCC(=O)NCC(=O)NCC(=O)N[C@@H](CCCCN)C(=O)O)NC(=O)[C@H](Cc2c[nH]cn2)NC(=O)[C@H](CCCCN)NC(=O)[C@H]([C@@H](C)O)NC(=O)[C@H](CC(C)C)NC(=O)[C@H](CC(C)C)NC(=O)[C@H](CC(=O)O)NC1=O)C(C)C [DX214] (Ac-AGVPFCDLLTKHCFEAGPGPEGGGK-OH; disulfide 6-13; C-terminus assumed) | would only release BLyS in the presence of pH 2 buffer |
| CSCC[C@@H]1NC(=O)[C@H](Cc2c[nH]cn2)NC(=O)[C@@H](NC(=O)[C@H](CC(C)C)NC(=O)[C@H](CCCNC(=N)N)NC(=O)[C@H](CO)NC(=O)[C@H](CO)NC(=O)CNC(C)=O)CSSC[C@@H](C(=O)N[C@H](C(=O)N[C@@H](Cc2c[nH]cn2)C(=O)N[C@@H](Cc2ccccc2)C(=O)N[C@@H](C)C(=O)N2CCC[C@H]2C(=O)N2CCC[C@H]2C(=O)NCC(=O)N2CCC[C@H]2C(=O)N[C@@H](CCC(=O)O)C(=O)NCC(=O)NCC(=O)NCC(=O)N[C@@H](CCCCN)C(=O)O)C(C)C)NC(=O)[C@H](C(C)C)NC(=O)[C@H](Cc2c[nH]cn2)NC(=O)[C@H]([C@@H](C)O)NC(=O)[C@H](CC(C)C)NC(=O)[C@H](CCC(=O)O)NC(=O)[C@H](CC(=O)O)NC1=O [DX216] (Ac-GSSRLCHMDELTHVCVHFAPPGPEGGGK-OH; disulfide 6-15; C-terminus assumed) | would only release BLyS in the presence of pH 2 buffer |
| CSCC[C@H](NC(=O)[C@@H]1CSSC[C@H](NC(=O)[C@H](CC(N)=O)NC(=O)CNC(=O)CNC(=O)[C@H](CC(=O)O)NC(=O)CNC(C)=O)C(=O)N[C@@H](Cc2ccc(O)cc2)C(=O)N[C@@H]([C@@H](C)O)C(=O)N[C@@H](CC(=O)O)C(=O)N[C@@H](CO)C(=O)N[C@@H](CC(C)C)C(=O)N[C@@H]([C@@H](C)O)C(=O)N[C@@H](CCCCN)C(=O)N[C@@H](CC(C)C)C(=O)N[C@@H](Cc2c[nH]cn2)C(=O)N[C@@H](Cc2ccccc2)C(=O)N1)C(=O)NCC(=O)N[C@@H](CC(=O)O)C(=O)N[C@@H](CCC(=O)O)C(=O)N1CCC[C@H]1C(=O)NCC(=O)N1CCC[C@H]1C(=O)N[C@@H](CCC(=O)O)C(=O)NCC(=O)NCC(=O)NCC(=O)N[C@@H](CCCCN)C(=O)O [DX217] (Ac-GDGGNCYTDSLTKLHFCMGDEPGPEGGGK-OH; disulfide 6-17; C-terminus assumed) | would only release BLyS in the presence of pH 2 buffer |
| Ac-GYDVLTKLYFVPGGPGPEGGGK [DX219] | would only release BLyS in the presence of pH 2 buffer |
| Ac-WTDSLTGLWFPDGGPGPEGGGK [DX221] | would only release BLyS in the presence of pH 2 buffer |
